Results from patent US4382030A, “2-Acylaminomethyl-1,4-benzodiazepine derivatives and their salts, pharmaceutical compositions thereof and process for their preparation” (Kali-Chemie Pharma GmbH, priority 1979, dated 1983).

Legend:
[1] = system: mice (tail flick, heat beam pain reaction); experiment: Tail flick Test in Mice; assay type: in vivo; details: sc, 0.5 h; mouse, s.c.; 30 minutes after administration; >75% increase of reaction time in 50% of animals
Description: (§1) This analgesic activity has been evaluated in two pharmacological standard methods, the tail flick test in mice and the arthritis pain test in rats.
3. Tail flick Test in Mice.
This test is carried out according to the method described by D'Amour and Smith (1941), yet fed male and female mice having a body weight of 16 to 25 g are used instead of rats. Thirty minutes prior to treatment with the test compound, each mouse is placed separately in a cylindrical container in such a manner that it cannot turn itself or move forward. Its tail is positioned in a narrow groove projecting out of the container. A certain point of the tail of each animal (about 35 mm beyond the root of the tail) is subjected to the heat beam of a lamp of known strength and temperature which is positioned directly under the tail. The number of seconds which pass before the mouse moves its tail out of the light beam is determined twice, once 30 minutes and once 15 minutes prior to subcutaneous administration of the test compound (10 mg/kg). Mice which show a reaction time differing more than 25% are eliminated from the test. The reaction time is again determined 15 minutes and 30 minutes after the treatment and an increase of the reaction period of more than 75% of the average values prior to treatment in the same animal is considered as showing an analgesic effect. The ED50 (95% reliability) of each test compound 30 minutes after administration is evaluated according to the method of Litchfield and Wilcoxon (1949). The dose which increases the reaction time as compared to the reaction time prior to treatment for more than 75% in 50% of the animals is considered as ED50.

[2] = system: rats (secondary arthritis pain, mycobacterium smegmae); experiment: Arthritis Pain Test in Rats; assay type: in vivo; details: po, rat, p.o., 3 hours after administration, protection in 50% of treated animals
Description: as §1
2. Arthritis Pain Test in Rats.
Male rats having a weight of from 160 to 180 g are anesthetized by small i.p. injection of 20 mg/kg of sodium pentobarbital and 0.1 ml of a suspension of mycobacterium smegmae (SI 043) in liquid paraffin (0.6 mg mycobacterium/0.1 ml of oil) are injected intracutaneously into the left rear paw. Fourteen days later when a marked secondary arthritis has developed in particular in the right rear paw, the effect of the test compound is evaluated. A control-reading is taken 30 minutes prior to administration of the test compound by bending the foot joint of the right rear paw three times and counting the number of squeakings. […] Three hours after oral administration of the test compound the bending of the joint is repeated. Animals which squeak only once or not at all are considered to be protected against pain. Between about 9 and 20 rats are used per dose and the ED50 (95% reliability) is determined according to the method of Litchfield and Wilcoxon (1949). The dose which provides protection in 50% of the treated animals is taken as ED50.

SMILES	ED50 [1] [mg/kg]	ED50 [2] [mg/kg]
COc1ccc2c(c1)N(C)C(CNC(=O)c1cccnc1)CN=C2c1ccccc1 (centres unmarked) [Compound 29, 8-methoxy-1-methyl-2-nicotinoylaminomethyl-5-phenyl-1H-2,3-dihydro-1,4-benzodiazepine]	4	30
CN1c2ccccc2C(c2ccccc2)=NCC1CNC(=O)c1cccn1C (centres unmarked) [Compound 36, 1-methyl-2-[(1-methylpyrrol-2-carbonyl)-aminomethyl]-5-phenyl-1H-2,3-dihydro-1,4-benzodiazepine]	2.1	> 18
COc1ccc2c(c1)N(C)C(CNC(=O)c1ccc(C)o1)CN=C2c1ccccc1 (centres unmarked) [Compound 31, 8-methoxy-1-methyl-2-[(5-methylfurane-2-carbonyl)-aminomethyl]-5-phenyl-1H-2,3-dihydro-1,4-benzodiazepine]	4.4	30
COc1ccc2c(c1)N(C)C(CNC(=O)c1ccoc1)CN=C2c1cccc(F)c1 (centres unmarked) [Compound 42, 8-methoxy-1-methyl-2-[(furane-3-carbonyl)-aminomethyl]-5-(3-fluorophenyl)-1H-2,3-dihydro-1,4-benzodiazepine]	5.6	< 18
COc1ccc2c(c1)N(C)C(CNC(=O)c1ccoc1)CN=C2c1ccc(F)cc1 (centres unmarked) [Compound 34, 8-methoxy-1-methyl-2-[(furane-3-carbonyl)-aminomethyl]-5-(4-fluorophenyl)-1H-2,3-dihydro-1,4-benzodiazepine]	2.1	5.6
CN1c2ccccc2C(c2ccccc2)=NCC1CNC(=O)c1ccoc1 (centres unmarked) [Compound 22, 1-methyl-2-[(furane-3-carbonyl)-aminomethyl]-5-phenyl-2,3-dihydro-1,4-benzodiazepine]	0.44	14
COc1ccc2c(c1)N(C)C(CNC(=O)c1ccc(Br)s1)CN=C2c1ccccc1F (centres unmarked) [Compound 46, 8-methoxy-1-methyl-2-[(5-bromothiophene-2-carbonyl)-aminomethyl]-5-(2-fluorophenyl)-1H-2,3-dihydro-1,4-benzodiazepine]	5.6	< 18
CN1c2cc(Cl)ccc2C(c2ccccc2)=NCC1CNC(=O)c1ccoc1 (centres unmarked) [Compound 37, 8-chloro-1-methyl-2-[(furane-3-carbonyl)-aminomethyl]-5-phenyl-1H-2,3-dihydro-1,4-benzodiazepine]	1.2	> 18
Cc1ccc(C(=O)NCC2CN=C(c3ccccc3)c3cc4c(cc3N2C)OCO4)s1 (centres unmarked) [Compound 32, 7,8-methylenedioxy-1-methyl-2-[(5-methylthiophene-2-carbonyl)-aminomethyl]-5-phenyl-1H-2,3-dihydro-1,4-benzodiazepine]	5.6	< 18
COc1ccc2c(c1)N(C)C(CNC(=O)c1ccoc1)CN=C2c1ccccc1F (centres unmarked) [Compound 39, 8-methoxy-1-methyl-2-[(furane-3-carbonyl)-amino-methyl]-5-(2-fluorophenyl)-1H-2,3-dihydro-1,4-benzodiazepine]	0.7	< 10
CN1c2cc(F)ccc2C(c2ccccc2)=NCC1CNC(=O)c1ccoc1 (centres unmarked) [Compound 38, 8-fluoro-1-methyl-2-[(furane-3-carbonyl)-amino-methyl]-5-phenyl-1H-2,3-dihydro-1,4-benzodiazepine]	0.32	< 18
COc1ccc2c(c1)N(C)C(CNC(=O)c1ccc(Br)s1)CN=C2c1cccc(F)c1 (centres unmarked) [Compound 48, 8-methoxy-1-methyl-2-[(5-bromothiophene-2-carbonyl)-aminomethyl]-5-(3-fluorophenyl)-1H-2,3-dihydro-1,4-benzodiazepine]	> 5.6	< 18
COc1ccc2c(c1)N(C)C(CNC(=O)c1sccc1C)CN=C2c1ccccc1 (centres unmarked) [Compound 23, 8-methoxy-1-methyl-2-[(3-methylthiophene-2-carbonyl)-aminomethyl]-5-phenyl-1H-2,3-dihydro-1,4-benzodiazepine]	7.2	25
O=C(NCC1CN=C(c2ccccc2)c2ccccc2N1)c1cccs1 (centres unmarked) [Compound 28, 2-[(thiophene-2-carbonyl)-aminomethyl]-5-phenyl-1H-2,3-dihydro-1,4-benzodiazepine]	4.2	> 32
CN1c2cc3c(cc2C(c2ccccc2)=NCC1CNC(=O)c1ccco1)OCO3 (centres unmarked) [Compound 25]	< 5.6	< 32
CN1c2cc3c(cc2C(c2ccccc2)=NCC1CNC(=O)c1ccoc1)OCO3 (centres unmarked) [Compound 26, 7,8-methylenedioxy-1-methyl-2-[(furane-3-carbonyl)-aminomethyl]-5-phenyl-1H-2,3-dihydro-1,4-benzodiazepine]	2	< 5.6
COc1ccc2c(c1)N(C)C(CNC(=O)c1ccccn1)CN=C2c1ccccc1 (centres unmarked) [Compound 30, 8-methoxy-1-methyl-2-picolinoylaminomethyl-5-phenyl-1H-2,3-dihydro-1,4-benzodiazepine]	7	> 32
Cc1ccc2c(c1)C(c1ccccc1F)=NCC(CNC(=O)c1ccoc1)N2C (centres unmarked) [Compound 45, 1,7-dimethyl-2-[(furane-3-carbonyl)-aminomethyl]-5-(2-fluorophenyl)-1H-2,3-dihydro-1,4-benzodiazepine]	3.8	< 18
COc1ccc2c(c1)N(C)C(CNC(=O)c1ccc(Br)s1)CN=C2c1ccccc1 (centres unmarked) [Compound 27, 8-methoxy-1-methyl-2-[(5-bromothiophene-2-carbonyl)-aminomethyl]-5-phenyl-1H-2,3-dihydro-1,4-benzodiazepine]	> 5.6	< 32
COc1ccc2c(c1)N(C)C(CNC(=O)c1cccn1C)CN=C2c1ccccc1 (centres unmarked) [Compound 33, 8-methoxy-1-methl-2-[(1-methylpyrrol-2-carbonyl)-aminomethyl]-5-phenyl-1H-2.3-dihydro-1,4-benzodiazepine]	1	< 18
CN1c2cc3c(cc2C(c2ccccc2)=NCC1CNC(=O)c1cccs1)OCO3 (centres unmarked) [Compound 24, 7,8-methylenedioxy-1-methyl-2-[(thiophene-2-carbonyl)-aminomethyl]-5-phenyl-1H-2,3-dihydro-1,4-benzodiazepine]	3.8	10
COc1ccc2c(c1)N(C)C(CNC(=O)c1cccs1)CN=C2c1ccccc1F (centres unmarked) [Compound 40, 8-methoxy-1-methyl-2-[(thiophene-2-carbonyl)-aminomethyl]-5-(2-fluorophenyl)-1H-2,3-dihydro-1,4-benzodiazepine]	1.2	< 18
COc1ccc2c(c1)N(C)C(CNC(=O)c1ccoc1)CN=C2c1ccccc1C(F)(F)F (centres unmarked) [Compound 35, 8-methoxy-1-methyl-2-[(furane-3-carbonyl)-aminomethyl]-5-(2-trifluoromethylphenyl)-1H-2,3-dihydro-1,4-benzodiazepine]	1	< 18
COc1ccc2c(c1)N(C)C(CNC(=O)c1ccc(Br)s1)CN=C2c1ccc(F)cc1 (centres unmarked) [Compound 49, 8-methoxy-1-methyl-2-[(5-bromothiophene-2-carbonyl)-aminomethyl]-5-(4-fluorophenyl)-1H-2,3-dihydro-1,4-benzodiazepine]	> 5.6	< 18
COc1ccc2c(c1)N(C)C(CNC(=O)c1cccs1)CN=C2c1ccc(F)cc1 (centres unmarked) [Compound 47]	3.2	< 18
CN1c2cc3c(cc2C(c2ccccc2)=NCC1CNC(=O)c1ccsc1)OCO3 (centres unmarked) [Compound 41, 7,8-methylenedioxy-1-methyl-2-[(thiophene-3-carbonyl)-aminomethyl]-5-phenyl-1H-2,3-dihydro-1,4-benzodiazepine]	2.1	5.6
Cc1ccc(C(=O)NCC2CN=C(c3ccccc3)c3ccc(F)cc3N2C)s1 (centres unmarked) [Compound 43, 8-fluoro-1-methyl-2-[(5-methylthiophene-2-carbonyl)-aminomethyl]-5-phenyl-1H-2,3-dihydro-1,4-benzodiazepine]	5.6	< 18
CN1c2cc3c(cc2C(c2ccccc2)=NCC1CNC(=O)c1ccoc1)OCCO3 (centres unmarked) [Compound 44, 7,8-ethylenedioxy-1-methyl-2-[(furane-3-carbonyl)-aminomethyl]-5-phenyl-1H-2,3-dihydro-1,4-benzodiazepine]	> 5.6	< 18
